Assay results from patent US20260200926A1, “TREM2 MODULATORS” (Muna Therapeutics ApS, priority 2022, published 2026).
Like-named read-outs stand apart in the source and are kept apart here.

Biological target: T1, Human TREM2 (Homo sapiens, UniProt Q9NZC2)
T1 construct: expressed in transfected cells
Experiment: Human TREM2 activity: cellular phosphorylation of Syk (AlphaLISA SureFire Ultra p-SYK) in HEK293/DAP12+TREM2 stable cell line
Type: cell-based
Conditions: for Emax: HEK293, read-out: Emax; for EC50: phospho-Syk AlphaLISA signal, HEK293/DAP12+TREM2 cells, concentration giving 50% of maximal response, read-out: EC50
Outline: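 HEK293 cells stably co-expressing human TREM2 and DAP12 were seeded at 10,000 cells/well and used 20–24 h later. Compounds were tested at 8 concentrations (top 100 μM, 1:6 steps, 0.5% DMSO) for 30 min at 37 °C. Syk phosphorylation at Tyr525/526 was read in lysates by AlphaLISA SureFire Ultra.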

[1] = maximal response relative to reference agonist example 1B (remaining examples)

T1 sequence (Q9NZC2 19-230): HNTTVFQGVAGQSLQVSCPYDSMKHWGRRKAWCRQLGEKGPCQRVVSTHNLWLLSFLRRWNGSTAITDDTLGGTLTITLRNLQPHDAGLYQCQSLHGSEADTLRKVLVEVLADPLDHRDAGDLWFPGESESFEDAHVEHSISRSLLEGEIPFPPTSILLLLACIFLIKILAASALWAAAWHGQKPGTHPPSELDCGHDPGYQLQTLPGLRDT
T1 sequence (O43914 22-113 partner): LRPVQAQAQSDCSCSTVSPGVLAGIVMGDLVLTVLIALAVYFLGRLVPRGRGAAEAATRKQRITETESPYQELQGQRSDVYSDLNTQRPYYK

Emax [1] [%]	EC50 [nM]	Emax (maximal response relative to reference agonist human TREM2 MAB1828 (examples 1, 1A and 1B)) [%]	Structure (SMILES)
> 110	1 to 10		Cc1cc([C@@H]2CN(c3cc4c(=O)n(C)c(C)nc4c(-c4ccc(F)cc4F)n3)C[C@H](C)O2)ccn1 (single isomer, unassigned) [Example 182A]
< 75	100 to 1000		Cc1cc([C@H]2CN(c3cc4c(=O)n(C)c(C)nc4c(-c4ccc(F)cc4F)n3)C[C@@H](C)O2)ccn1 (single isomer, unassigned) [Example 182B]
75 to 110	100 to 1000		Cc1cc([C@H]2CN(c3cc4c(=O)n(C)c(C(F)(F)F)nc4c(-c4ccc(F)cc4F)n3)C[C@@H](C)O2)ccn1 (single isomer, unassigned) [Example 189B]
< 75	< 1		Cc1cc([C@@H]2CN(c3nc(-c4ccc(F)cc4F)c4nc(C(F)(F)F)n(C)c(=O)c4n3)C[C@H](C)O2)ccn1 (single isomer, unassigned) [Example 191A]
75 to 110	1 to 10		Cc1cc([C@H]2CN(c3nc(-c4ccc(F)cc4F)c4nc(C(F)(F)F)n(C)c(=O)c4n3)C[C@@H](C)O2)ccn1 (single isomer, unassigned) [Example 191B]
< 75	100 to 1000		Cc1cc([C@@H]2CN(c3cc4c(=O)n(C)c(C)nc4c(-c4ccc(C(F)F)nc4)n3)C[C@H](C)O2)ccn1 (single isomer, unassigned) [Example 192A]
75 to 110	1 to 10		Cc1cc([C@H]2CN(c3cc4c(=O)n(C)c(C)nc4c(-c4ccc(C(F)F)nc4)n3)C[C@@H](C)O2)ccn1 (single isomer, unassigned) [Example 192B]
< 75	1 to 10		Cc1nc2c(-c3ccc(C(F)(F)F)cc3F)nc(N3C[C@@H](c4cnn(C5CC5)c4)O[C@@H](C)C3)nc2c(=O)n1C (single isomer, unassigned) [Example 195A]
75 to 110	< 1		Cc1nc2c(-c3ccc(C(F)(F)F)cc3F)nc(N3C[C@@H](C)O[C@@H](c4cnn(C5CC5)c4)C3)nc2c(=O)n1C (single isomer, unassigned) [Example 195B]
< 75	100 to 1000		Cc1nc2c(-c3ccc(Cl)cc3F)nc(N3CCO[C@H](c4cnn(C)c4)C3)nc2c(=O)[nH]1 (single isomer, unassigned) [Example 203A]
< 75	100 to 1000		Cc1nc2c(-c3ccc(Cl)cc3F)nc(N3CCO[C@@H](c4cnn(C)c4)C3)nc2c(=O)[nH]1 (single isomer, unassigned) [Example 203B]
	10 to 100	75 to 110	Cc1nc2c(-c3ccc(Cl)cc3F)nc(N3CCOC(c4cnn(C)c4)C3)nc2c(=O)n1C (centres unmarked) [Example 1, 8-(4-chloro-2-fluorophenyl)-2,3-dimethyl-6-(2-(1-methyl-1H-pyrazol-4-yl)morpholino)pyrimido[5,4-d]pyrimidin-4 (3H)-one]
75 to 110	1 to 10		Cc1nc2c(-c3ccc(Cl)cc3F)nc(N3CCOC(c4cnn(C5CC5)c4)C3)nc2c(=O)n1C (centres unmarked) [Example 2, 8-(4-chloro-2-fluorophenyl)-6-(2-(1-cyclopropyl-1H-pyrazol-4-yl)morpholino)-2,3-dimethylpyrimido[5,4-d]pyrimidin-4 (3H)-one]
75 to 110	1 to 10		Cc1cc(C2CN(c3nc(-c4ccc(Cl)cc4F)c4nc(C)n(C)c(=O)c4n3)CCO2)ccn1 (centres unmarked) [Example 3, 8-(4-chloro-2-fluorophenyl)-2,3-dimethyl-6-(2-(2-methylpyridin-4-yl)morpholino)pyrimido[5,4-d]pyrimidin-4 (3H)-one]

Continued, compound first:

Structure (SMILES)	Emax [1] [%]	EC50 [nM]	Emax (maximal response relative to reference agonist human TREM2 MAB1828 (examples 1, 1A and 1B)) [%]
Cc1cc([C@H]2CN(c3cc4c(=O)n(C)c(C)nc4c(-c4ccc(C(F)F)nc4)n3)CC(F)(F)O2)ccn1 (single isomer, unassigned) [Example 181B]	75 to 110	1 to 10	
C[C@H]1CN(c2nc(-c3ccc(F)cc3F)c3nc(C(F)(F)F)n(C)c(=O)c3n2)C[C@@H](c2cnn(C3CC3)c2)O1 (single isomer, unassigned) [Example 183A]	75 to 110	1 to 10	
C[C@@H]1CN(c2nc(-c3ccc(F)cc3F)c3nc(C(F)(F)F)n(C)c(=O)c3n2)C[C@H](c2cnn(C3CC3)c2)O1 (single isomer, unassigned) [Example 183B]	75 to 110	< 1	
Cc1nc2c(-c3ccc(C(F)(F)F)nc3)nc(N3C[C@@H](c4cnn(C5CC5)c4)O[C@@H](C)C3)cc2c(=O)n1C (single isomer, unassigned) [Example 184A]	75 to 110	1 to 10	
Cc1nc2c(-c3ccc(C(F)(F)F)nc3)nc(N3C[C@@H](C)O[C@@H](c4cnn(C5CC5)c4)C3)cc2c(=O)n1C (single isomer, unassigned) [Example 184B]	< 75	10 to 100	
Cn1c(C(F)(F)F)nc2c(-c3cc(F)c(F)cc3F)nc([C@@H]3CCO[C@H](c4cnn(C5CC5)c4)C3)nc2c1=O (single isomer, unassigned) [Example 186A]	75 to 110	1 to 10	
Cn1c(C(F)(F)F)nc2c(-c3cc(F)c(F)cc3F)nc([C@H]3CCO[C@@H](c4cnn(C5CC5)c4)C3)nc2c1=O (single isomer, unassigned) [Example 186B]	< 75	100 to 1000	
Cc1cc([C@@H]2CN(c3cc4c(=O)n(C)c(C(F)(F)F)nc4c(-c4ccc(F)cc4F)n3)C[C@H](C)O2)ccn1 (single isomer, unassigned) [Example 189A]	75 to 110	10 to 100	
Cc1nc2c(-c3ccc(F)cc3F)nc(N3C[C@@H](c4cnn(C5CC5)c4)O[C@@H](C)C3)cc2c(=O)n1C (single isomer, unassigned) [Example 190A]	75 to 110	10 to 100	
Cc1nc2c(-c3ccc(F)cc3F)nc(N3C[C@@H](C)O[C@@H](c4cnn(C5CC5)c4)C3)cc2c(=O)n1C (single isomer, unassigned) [Example 190B]	< 75	100 to 1000	
C[C@H]1CN(c2cc3c(=O)n(C)c(C(F)(F)F)nc3c(-c3ccc(F)cc3F)n2)C[C@@H](c2cnn(C3CC3)c2)O1 (single isomer, unassigned) [Example 193A]	75 to 110	1 to 10	
C[C@@H]1CN(c2cc3c(=O)n(C)c(C(F)(F)F)nc3c(-c3ccc(F)cc3F)n2)C[C@H](c2cnn(C3CC3)c2)O1 (single isomer, unassigned) [Example 193B]	< 75	10 to 100	
Cc1nc2c(-c3ccc(C(F)F)nc3)nc(N3C[C@@H](c4cnn(C5CC5)c4)O[C@@H](C)C3)cc2c(=O)n1C (single isomer, unassigned) [Example 194A]	75 to 110	10 to 100	
Cc1nc2c(-c3ccc(C(F)F)nc3)nc(N3C[C@@H](C)O[C@@H](c4cnn(C5CC5)c4)C3)cc2c(=O)n1C (single isomer, unassigned) [Example 194B]	< 75	100 to 1000	
Cn1c(C(F)(F)F)nc2c(-c3ccc(F)cc3F)nc([C@@H]3CCO[C@H](c4cnn(C5CC5)c4)C3)nc2c1=O (single isomer, unassigned) [Example 196A]	75 to 110	1 to 10	
Cn1c(C(F)(F)F)nc2c(-c3ccc(F)cc3F)nc([C@H]3CCO[C@@H](c4cnn(C5CC5)c4)C3)nc2c1=O (single isomer, unassigned) [Example 196B]	< 75	10 to 100	
Cn1c(C(F)(F)F)nc2c(-c3ccc(F)cc3F)nc([C@@H]3CCO[C@H](c4cnn(C5CC5)c4)C3)cc2c1=O (single isomer, unassigned) [Example 197A]	< 75	10 to 100	
Cn1c(C(F)(F)F)nc2c(-c3ccc(F)cc3F)nc([C@H]3CCO[C@@H](c4cnn(C5CC5)c4)C3)cc2c1=O (single isomer, unassigned) [Example 197B]	< 75	1 to 10	
Cc1cc([C@@H]2CN(c3cc4c(=O)n(C)c(C)nc4c(-c4ccc(C(F)(F)F)nc4)n3)C[C@H](C)O2)ccn1 (single isomer, unassigned) [Example 199A]	< 75	10 to 100	
Cc1cc([C@H]2CN(c3cc4c(=O)n(C)c(C)nc4c(-c4ccc(C(F)(F)F)nc4)n3)C[C@@H](C)O2)ccn1 (single isomer, unassigned) [Example 199B]	75 to 110	< 1	
Cc1nc2c(-c3ccc(C#N)cc3F)nc(N3C[C@@H](c4cnn(C5CC5)c4)O[C@@H](C)C3)cc2c(=O)n1C (single isomer, unassigned) [Example 200A]	75 to 110	< 1	
Cc1nc2c(-c3ccc(C#N)cc3F)nc(N3C[C@@H](C)O[C@@H](c4cnn(C5CC5)c4)C3)cc2c(=O)n1C (single isomer, unassigned) [Example 200B]	75 to 110	10 to 100	
Cc1nc2c(-c3ccc(F)cc3C#N)nc(N3C[C@@H](c4cnn(C5CC5)c4)O[C@@H](C)C3)cc2c(=O)n1C (single isomer, unassigned) [Example 201A]	< 75	> 1000	
Cc1nc2c(-c3ccc(F)cc3C#N)nc(N3C[C@@H](C)O[C@@H](c4cnn(C5CC5)c4)C3)cc2c(=O)n1C (single isomer, unassigned) [Example 201B]	< 75	> 1000	
Cc1nc2c(-c3ccc(C(F)(F)F)cc3C#N)nc(N3C[C@@H](c4cnn(C5CC5)c4)O[C@@H](C)C3)cc2c(=O)n1C (single isomer, unassigned) [Example 202A]	< 75	> 1000	
Cc1nc2c(-c3ccc(C(F)(F)F)cc3C#N)nc(N3C[C@@H](C)O[C@@H](c4cnn(C5CC5)c4)C3)cc2c(=O)n1C (single isomer, unassigned) [Example 202B]	< 75	> 1000	
